The target of assay [1] is human CB1 receptors (Homo sapiens (Human), UniProt P21554). The assay is described as follows: cAMP assay, CHO cells expressing human CB1 receptors. The conditions noted are these: CHO cells expressing human CB1, cAMP; read-out: human CB1 EC50. It is filed as cell-based. The procedure, abridged:
(§1)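 CHO cells expressing human CB1 or CB2 were preincubated 30 min at 30 °C in Krebs Ringer bicarbonate buffer with 1 mM IBMX, then exposed to compound 30 min at 30 °C. cAMP quantified by time-resolved FRET against a cAMP standard curve; EC50 values derived.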

Assay [2] concerns the target human CB2 receptors (Homo sapiens (Human), UniProt P34972). Kind of assay: cAMP assay, CHO cells expressing human CB2 receptors. In kind it is cell-based. To be noted: CHO cells expressing human CB2, cAMP; read-out: human CB2 EC50. The gist of the method:
as §1

Some results are limits rather than exact numbers.

human CB1 receptors, sequence (P21554 whole entry): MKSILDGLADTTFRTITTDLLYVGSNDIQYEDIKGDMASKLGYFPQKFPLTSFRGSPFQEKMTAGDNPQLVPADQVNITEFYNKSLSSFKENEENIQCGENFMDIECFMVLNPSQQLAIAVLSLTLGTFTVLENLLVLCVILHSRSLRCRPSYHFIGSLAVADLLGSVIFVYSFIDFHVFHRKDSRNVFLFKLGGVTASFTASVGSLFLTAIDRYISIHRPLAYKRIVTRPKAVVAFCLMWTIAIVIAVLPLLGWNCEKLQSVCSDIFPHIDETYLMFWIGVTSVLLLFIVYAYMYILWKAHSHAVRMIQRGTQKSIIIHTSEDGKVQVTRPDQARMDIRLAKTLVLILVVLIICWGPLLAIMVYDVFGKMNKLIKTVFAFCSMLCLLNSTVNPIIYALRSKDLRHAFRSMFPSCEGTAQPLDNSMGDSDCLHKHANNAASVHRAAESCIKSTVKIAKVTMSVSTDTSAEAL
human CB2 receptors, sequence (P34972 whole entry): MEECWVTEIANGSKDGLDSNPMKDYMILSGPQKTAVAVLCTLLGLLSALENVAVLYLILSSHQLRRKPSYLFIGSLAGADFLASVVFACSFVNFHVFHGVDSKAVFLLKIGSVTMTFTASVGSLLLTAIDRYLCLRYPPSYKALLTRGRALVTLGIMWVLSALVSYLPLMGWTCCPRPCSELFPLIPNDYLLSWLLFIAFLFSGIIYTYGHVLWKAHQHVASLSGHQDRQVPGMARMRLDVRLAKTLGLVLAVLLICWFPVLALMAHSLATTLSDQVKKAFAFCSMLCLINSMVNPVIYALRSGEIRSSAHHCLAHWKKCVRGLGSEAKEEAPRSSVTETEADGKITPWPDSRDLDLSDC

For `CNC(=O)[C@H](CC(C)(C)C)NC(=O)c1ccc(C2CC2)c(OCC2CC2)n1` [Example 182, (S)-5-Cyclopropyl-6-(cyclopropylmethoxy)-N-(4,4-dimethyl-1-(methylamino)-1-oxopentan-2-yl)picolinamide], the EC50 is above 10000 nM in assay [1] and 1.7 nM in assay [2].
Take `CNC(=O)[C@@H](NC(=O)c1ccc(C2CC2)c(OCC2CCCO2)n1)C(C)(C)C` (stereo partly drawn) [Example 183, 5-Cyclopropyl-N-((S)-3,3-dimethyl-1-(methylamino)-1-oxobutan-2-yl)-6-((tetrahydrofuran-2-yl)methoxy)picolinamide]: the 50% effective concentration (EC50) in assay [1] is 102 nM; in assay [2], 4 nM.
On to `CNC(=O)[C@H](CC(C)C)NC(=O)c1ccc(C2CC2)c(OCC2CCCO2)n1` (stereo partly drawn) [Example 184, 5-Cyclopropyl-N-((S)-4-methyl-1-(methylamino)-1-oxopentan-2-yl)-6-((tetrahydrofuran-2-yl)methoxy)picolinamide], for which the concentration for a half-maximal effect (EC50) in assay [1] was above 10000 nM; in assay [2] it was 3.9 nM.
On the same counts, the results for `CNC(=O)[C@H](CC(C)(C)C)NC(=O)c1ccc(C2CC2)c(OCC2CCCO2)n1` (stereo partly drawn) [Example 185, 5-Cyclopropyl-N-((S)-4,4-dimethyl-1-(methylamino)-1-oxopentan-2-yl)-6-((tetrahydrofuran-2-yl)methoxy)picolinamide] are above 10000 nM and 7.5 nM.
Consider `CC(C)C[C@H](NC(=O)c1ccc(C2CC2)c(OCC2CCCO2)n1)C(N)=O` (stereo partly drawn) [Example 186, N-((S)-1-Amino-4-methyl-1-oxopentan-2-yl)-5-cyclopropyl-6-((tetrahydrofuran-2-yl)methoxy)picolinamide], for which the 50% effective concentration (EC50) in assay [1] was 1490 nM; in assay [2] it was 1.1 nM.
For `CC(C)C[C@H](NC(=O)c1ccc(C2CC2)c(Oc2ccc(F)cc2)n1)C(N)=O` [Example 187, 5-Cyclopropyl-6-(4-fluoro-phenoxy)-pyridine-2-carboxylic acid ((S)-1-carbamoyl-3-methyl-butyl)-amide], the EC50 in assay [1] is above 10000 nM; in assay [2] it was 52.2 nM.
For `CNC(=O)[C@@H](NC(=O)c1ccc(Br)c(OCC2CCCO2)n1)C(C)(C)C` (stereo partly drawn) [Example 188, 5-Bromo-6-(tetrahydro-furan-2-ylmethoxy)-pyridine-2-carboxylic acid ((S)-2,2-dimethyl-1-methylcarbamoyl-propyl)-amide], the EC50 in assay [1] stood at 375 nM; in assay [2] it was 5 nM.
In the case of `Cc1nc(C2(NC(=O)c3ccc(C4CC4)c(OCc4ccccn4)n3)CCC2)no1` [Example 189, 5-Cyclopropyl-N-(1-(5-methyl-1,2,4-oxadiazol-3-yl)cyclobutyl)-6-(pyridin-2-ylmethoxy)picolinamide], the concentration giving a half-maximal response (EC50) was above 10000 nM in assay [1] and 381 nM in assay [2].
The matching figures for `Cc1nc(C(NC(=O)c2ccc(C3CC3)c(OCC3CC3)n2)C2CC2)no1` (stereo not shown) [Example 190, 5-Cyclopropyl-N-(cyclopropyl(5-methyl-1,2,4-oxadiazol-3-yl)methyl)-6-(cyclopropylmethoxy)picolinamide]: above 10000 nM and 20.4 nM.
As to `CC(C)[C@](C)(CO)NC(=O)c1ccc(C2CC2)c(OCC2CC2)n1` [Example 191, 5-Cyclopropyl-6-cyclopropylmethoxy-pyridine-2-carboxylic acid ((R)-1-hydroxymethyl-1,2-dimethyl-propyl)-amide], the EC50 is above 10000 nM in assay [1] and 57.7 nM in assay [2].
`CNC(=O)[C@@H](NC(=O)c1cccc(-c2cccc(Cl)c2)n1)C(C)(C)C` [Example 192, (S)-6-(3-Chlorophenyl)-N-(3,3-dimethyl-1-(methylamino)-1-oxobutan-2-yl)picolinamide]: the EC50 was found to be 1540 nM in assay [1] and 64.2 nM in assay [2].
With `CNC(=O)[C@H](CC(C)(C)C)NC(=O)c1cccc(-c2cccc(Cl)c2)n1` [Example 193, (S)-6-(3-Chlorophenyl)-N-(4,4-dimethyl-1-(methylamino)-1-oxopentan-2-yl)picolinamide], the half-maximal effective concentration (EC50) in assay [1] is above 10000 nM; in assay [2], 99.4 nM.
The matching figures for `CC(C)(CCO)NC(=O)c1ccc(C2CC2)c(OCC2CC2)n1` [Example 194, 5-Cyclopropyl-6-(cyclopropylmethoxy)-N-(4-hydroxy-2-methylbutan-2-yl)picolinamide]: above 10000 nM and 99.1 nM.
On the same counts, the results for `CNC(=O)[C@@H](NC(=O)c1ccc(C2CC2)c(OCC2CCOCC2)n1)C(C)(C)C` [Example 195, (S)-5-Cyclopropyl-N-(3,3-dimethyl-1-(methylamino)-1-oxobutan-2-yl)-6-((tetrahydro-2H-pyran-4-yl)methoxy)picolinamide] are 206 nM and 1.4 nM.
The matching figures for `CNC(=O)[C@H](CC(C)(C)C)NC(=O)c1ccc(C2CC2)c(OCC2CCOCC2)n1` [Example 196, (S)-5-Cyclopropyl-N-(4,4-dimethyl-1-(methylamino)-1-oxopentan-2-yl)-6-((tetrahydro-2H-pyran-4-yl)methoxy)picolinamide]: above 10000 nM and 10.3 nM.
Consider `Cc1nc([C@H](NC(=O)c2ccc(C3CC3)c(OCC3CC3)n2)C2CC2)no1` [Example 197, (−)-5-Cyclopropyl-6-cyclopropylmethoxy-pyridine-2-carboxylic acid [cyclopropyl-(5-methyl-[1,2,4]oxadiazol-3-yl)-methyl]-amide], for which the EC50 in assay [1] is above 10000 nM; in assay [2] it was 33.2 nM.
For `Cc1nc([C@@H](NC(=O)c2ccc(C3CC3)c(OCC3CC3)n2)C2CC2)no1` [Example 198, (+)-5-Cyclopropyl-6-cyclopropylmethoxy-pyridine-2-carboxylic acid [cyclopropyl-(5-methyl-[1,2,4]oxadiazol-3-yl)-methyl]-amide], the EC50 in assay [1] is above 10000 nM; in assay [2], 6.8 nM.
As for `Cc1nc(C(C)(C)NC(=O)c2ccc(C3CC3)c(OCc3ccccn3)n2)no1` [Example 199, 5-Cyclopropyl-N-(2-(5-methyl-1,2,4-oxadiazol-3-yl)propan-2-yl)-6-(pyridin-2-ylmethoxy)picolinamide], the figures for the EC50 in assay [1] and in assay [2] were above 10000 nM and 151 nM, respectively.
On the same counts, the results for `CC(C)C[C@H](NC(=O)c1ccc(C2CC2)c(OCc2ccccn2)n1)C(N)=O` [Example 200, (S)-N-(1-Amino-4-methyl-1-oxopentan-2-yl)-5-cyclopropyl-6-(pyridin-2-ylmethoxy)picolinamide] are above 10000 nM and 23.3 nM.
The matching figures for `CNC(=O)[C@@H](NC(=O)c1ccc(C2CC2)c(OCc2ccccn2)n1)C(C)(C)C` [Example 201, (S)-5-Cyclopropyl-N-(3,3-dimethyl-1-(methylamino)-1-oxobutan-2-yl)-6-(pyridin-2-ylmethoxy)picolinamide]: above 10000 nM and 26.7 nM.
The matching figures for `Cc1nc(C(C)(C)NC(=O)c2ccc(C3CC3)c(OCC3CCOCC3)n2)no1` [Example 202, 5-Cyclopropyl-N-(2-(5-methyl-1,2,4-oxadiazol-3-yl)propan-2-yl)-6-((tetrahydro-2H-pyran-4-yl)methoxy)picolinamide]: 615 nM and 23.6 nM.
Turning to `CNC(=O)[C@H](CC(C)C)NC(=O)c1ccc(C2CC2)c(OCC2CCOCC2)n1` [Example 203, (S)-5-Cyclopropyl-N-(4-methyl-1-(methylamino)-1-oxopentan-2-yl)-6-((tetrahydro-2H-pyran-4-yl)methoxy)picolinamide], the half-maximal effective concentration (EC50) is 74.9 nM in assay [1] and 2.7 nM in assay [2].
On the same counts, the results for `CNC(=O)[C@@H](NC(=O)c1cccc(-c2ccccc2)n1)C(C)(C)C` [Example 204, (S)-N-(3,3-Dimethyl-1-(methylamino)-1-oxobutan-2-yl)-6-phenylpicolinamide] are 737 nM and 13.2 nM.
Consider `CNC(=O)[C@H](CC(C)C)NC(=O)c1cccc(-c2ccccc2)n1` [Example 205, (S)-N-(4-Methyl-1-(methylamino)-1-oxopentan-2-yl)-6-phenylpicolinamide], for which the EC50 in assay [1] was above 10000 nM; in assay [2] it was 57.8 nM.
For `CNC(=O)[C@@H](NC(=O)c1ccc(N2CC(F)(F)C2)c(OCC2CCCO2)n1)C(C)(C)C` (stereo partly drawn) [Example 206, 5-(3,3-Difluoroazetidin-1-yl)-N-((S)-3,3-dimethyl-1-(methylamino)-1-oxobutan-2-yl)-6-((tetrahydrofuran-2-yl)methoxy)picolinamide], the half-maximal effective concentration (EC50) was above 10000 nM in assay [1] and 25 nM in assay [2].
The matching figures for `CCC(CC)(NC(=O)c1ccc(N2CC(F)(F)C2)c(OCC2CC2)n1)C(=O)O` [Example 207, 2-(6-(Cyclopropylmethoxy)-5-(3,3-difluoroazetidin-1-yl)picolinamido)-2-ethylbutanoic acid]: above 10000 nM and 14.4 nM.
Take `CNC(=O)[C@@H](NC(=O)c1ccc(N2CC(F)(F)C2)c(OCC2CC2)n1)C(C)(C)C` [Example 208, (S)-6-(Cyclopropylmethoxy)-5-(3,3-difluoroazetidin-1-yl)-N-(3,3-dimethyl-1-(methylamino)-1-oxobutan-2-yl)picolinamide]: the half-maximal effective concentration (EC50) in assay [1] was above 10000 nM; in assay [2] it was 8.9 nM.
`CNC(=O)[C@H](CC(C)(C)C)NC(=O)c1ccc(N2CC(F)(F)C2)c(OCC2CC2)n1` [Example 209, (S)-6-(Cyclopropylmethoxy)-5-(3,3-difluoroazetidin-1-yl)-N-(4,4-dimethyl-1-(methylamino)-1-oxopentan-2-yl)picolinamide]: the figures for the EC50 in assay [1] and in assay [2] were above 10000 nM and 2.5 nM, respectively.
`CNC(=O)[C@H](CC(C)C)NC(=O)c1cccc(-c2cccc(F)c2)n1` [Example 210, (S)-6-(3-Fluorophenyl)-N-(4-methyl-1-(methylamino)-1-oxopentan-2-yl)picolinamide]: the EC50 in assay [1] is above 10000 nM; in assay [2], 62 nM.

The record behind these values is US9290451B2 (Hoffmann-La Roche Inc., priority 2011, dated 2016).
